Positions of bridges follow the written chain, without caps; N, C: chain ends. Residues, ends and D or L forms follow the SMILES beside them.
Experiments:
[1] = target: T1, recombinant human Seprase (rhuSeprase) (Homo sapiens, UniProt Q12884); test: Surface plasmon resonance (Biacore T100) on immobilized rhuSeprase; type: binding
T1 construct: named pCEP4-IgKappa-huSeprase-coCHO_26-760aa-H6 and used for the generation of recombinant soluble human Seprase (rhuSeprase); mouse Ig kappa-chain V-J2-C secretion signal (N, cleaved yes); made in house; host or cells: FreeStyle CHO-S cells (transient transfection; purified from supernatant by Ni-chelate and SEC)
T1 sequence (Q12884 26-760): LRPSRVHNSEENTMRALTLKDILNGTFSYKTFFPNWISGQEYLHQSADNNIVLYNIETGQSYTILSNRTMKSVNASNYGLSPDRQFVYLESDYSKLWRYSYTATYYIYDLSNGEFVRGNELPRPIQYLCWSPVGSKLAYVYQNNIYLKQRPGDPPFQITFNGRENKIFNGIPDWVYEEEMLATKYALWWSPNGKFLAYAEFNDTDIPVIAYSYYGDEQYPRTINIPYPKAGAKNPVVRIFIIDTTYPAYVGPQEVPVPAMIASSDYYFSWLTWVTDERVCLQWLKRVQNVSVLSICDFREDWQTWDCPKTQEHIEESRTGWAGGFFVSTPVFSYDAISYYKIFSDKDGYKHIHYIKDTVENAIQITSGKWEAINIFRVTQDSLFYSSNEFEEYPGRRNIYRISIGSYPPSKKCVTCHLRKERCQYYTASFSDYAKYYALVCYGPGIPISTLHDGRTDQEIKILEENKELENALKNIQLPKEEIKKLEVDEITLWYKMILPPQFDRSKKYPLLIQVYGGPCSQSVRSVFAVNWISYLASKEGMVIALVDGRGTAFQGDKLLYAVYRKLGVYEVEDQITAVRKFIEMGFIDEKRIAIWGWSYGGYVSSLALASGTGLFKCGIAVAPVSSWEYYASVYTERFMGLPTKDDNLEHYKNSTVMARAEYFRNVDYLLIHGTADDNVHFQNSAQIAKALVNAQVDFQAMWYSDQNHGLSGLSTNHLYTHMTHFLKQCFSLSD

human Seprase [2] = target: T2, human Seprase (Homo sapiens, UniProt Q12884)
T2 sequence (Q12884 26-760): T1 sequence (Q12884 26-760)

DPP IV = target: T3, DPP IV (Homo sapiens, UniProt P27487); type: binding
T3 construct: purchased R&D Systems
T3 sequence (P27487 whole entry): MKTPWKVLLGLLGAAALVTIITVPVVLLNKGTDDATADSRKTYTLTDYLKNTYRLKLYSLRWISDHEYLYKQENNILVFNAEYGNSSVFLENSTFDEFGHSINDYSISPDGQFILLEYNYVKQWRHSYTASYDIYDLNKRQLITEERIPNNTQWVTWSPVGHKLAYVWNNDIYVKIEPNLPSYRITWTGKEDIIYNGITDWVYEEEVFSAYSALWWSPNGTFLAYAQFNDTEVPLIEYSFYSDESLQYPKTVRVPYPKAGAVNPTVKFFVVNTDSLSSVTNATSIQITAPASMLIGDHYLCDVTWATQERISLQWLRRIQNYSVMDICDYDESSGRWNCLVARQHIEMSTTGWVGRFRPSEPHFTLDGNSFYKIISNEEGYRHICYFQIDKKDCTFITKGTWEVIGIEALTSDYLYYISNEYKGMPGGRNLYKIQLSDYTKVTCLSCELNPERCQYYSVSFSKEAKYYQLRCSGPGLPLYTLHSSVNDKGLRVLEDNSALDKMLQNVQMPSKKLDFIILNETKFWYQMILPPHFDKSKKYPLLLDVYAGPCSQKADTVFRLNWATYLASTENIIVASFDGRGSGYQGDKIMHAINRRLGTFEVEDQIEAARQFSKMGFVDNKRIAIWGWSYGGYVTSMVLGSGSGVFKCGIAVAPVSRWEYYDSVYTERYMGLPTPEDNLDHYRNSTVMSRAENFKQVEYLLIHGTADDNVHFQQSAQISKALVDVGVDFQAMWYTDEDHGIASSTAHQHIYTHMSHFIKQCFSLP

[3] = target: T4, murine homologue of Seprase (Mus musculus, UniProt P97321); type: cell-based
T4 construct: expressed in transfected cells; host or cells: CHO-K1
T4 sequence (P97321 1-761): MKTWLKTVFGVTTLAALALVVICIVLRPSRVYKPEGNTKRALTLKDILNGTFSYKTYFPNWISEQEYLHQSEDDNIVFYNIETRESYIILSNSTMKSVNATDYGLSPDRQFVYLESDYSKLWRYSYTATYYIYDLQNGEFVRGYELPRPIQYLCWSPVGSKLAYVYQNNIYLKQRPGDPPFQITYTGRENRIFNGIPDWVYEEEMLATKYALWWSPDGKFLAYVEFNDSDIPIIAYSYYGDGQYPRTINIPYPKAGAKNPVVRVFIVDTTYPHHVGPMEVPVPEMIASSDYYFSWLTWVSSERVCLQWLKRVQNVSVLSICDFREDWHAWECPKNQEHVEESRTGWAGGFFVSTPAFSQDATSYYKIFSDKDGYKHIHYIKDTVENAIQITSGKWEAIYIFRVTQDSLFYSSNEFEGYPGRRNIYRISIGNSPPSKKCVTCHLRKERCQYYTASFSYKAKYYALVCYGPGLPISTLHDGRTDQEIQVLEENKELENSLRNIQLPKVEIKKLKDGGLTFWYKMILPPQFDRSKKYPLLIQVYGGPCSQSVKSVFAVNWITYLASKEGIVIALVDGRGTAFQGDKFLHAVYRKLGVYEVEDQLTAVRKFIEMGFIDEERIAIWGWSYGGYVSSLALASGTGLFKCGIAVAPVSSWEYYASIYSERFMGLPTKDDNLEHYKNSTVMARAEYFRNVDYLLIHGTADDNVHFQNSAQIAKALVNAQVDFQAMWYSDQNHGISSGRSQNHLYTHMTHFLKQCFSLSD

[4] = target: T5, murine Seprase expressing tumor cells (CAFs in CT26 tumor sections) (Mus musculus, UniProt P97321); test: Staining of paraffin sections of CT26 tumors
T5 construct: from tissue; host or cells: paraffin sections of subcutaneous CT26 tumors grown in BALB/c mice (stromal CAFs)
T5 sequence (P97321 1-761): T4 sequence (P97321 1-761)

human Seprase [5] = target: T2, human Seprase; type: binding; set-up: named pCEP4-IgKappa-huSeprase-coCHO_26-760aa-H6 and used for the generation of recombinant soluble human Seprase (rhuSeprase); mouse Ig kappa-chain V-J2-C secretion signal (N, cleaved yes); made in house; host or cells: FreeStyle CHO-S cells (transient transfection; purified from supernatant by Ni-chelate and SEC)

## CC[C@H](C)[C@@H]1NC(=O)[C@@H]2CSSC[C@H](NC(=O)[C@H](CCCCN)NC(=O)CN)C(=O)N3CCC[C@H]3C(=O)N[C@@H](Cc3ccc(O)cc3)C(=O)N[C@@H](CO)C(=O)N[C@@H](CC(N)=O)C(=O)N[C@@H](Cc3c[nH]c4ccccc34)C(=O)N[C@@H]([C@@H](C)O)C(=O)N3CCC[C@H]3C(=O)NCC(=O)N[C@@H](CCCNC(=N)N)C(=O)NCC(=O)N3CCC[C@H]3C(=O)N[C@@H](CC(=O)O)C(=O)N[C@H]3CSSC[C@H](NC1=O)C(=O)N[C@@H](CCCNC(=N)N)C(=O)NCC(=O)N[C@@H](CC(N)=O)C(=O)NCC(=O)N[C@@H](Cc1ccc(O)cc1)C(=O)N[C@H](C(=O)NCC(=O)O)CSSC[C@H](NC(=O)[C@H](CC(=O)O)NC(=O)[C@H](CO)NC(=O)[C@H](CC(=O)O)NC(=O)[C@H](CCCNC(=N)N)NC(=O)[C@H](CCCNC(=N)N)NC3=O)C(=O)N1CCC[C@H]1C(=O)NCC(=O)N[C@@H](CCCNC(=N)N)C(=O)N2 [MC-FA-010] (H-GKCPYSNWTPGRGPDCRRDSDCPGRCICRGNGYCG-OH; disulfide 3-26, 16-28, 22-34)
[1]
  kd: 0.2006 s⁻¹
[1]; read-out: ka (1/Ms)
  kon: 1.53e+06 M⁻¹ s⁻¹
Human Seprase [2]
  IC50, binding affinity to human Seprase: nanomolar range
DPP IV
  binding to DPP IV: very weak signal
[3]
  cross-reactivity with the murine homologue: cross-reactive
[4]
  binding to CT26 tumor section: binds on CAFs
Human Seprase [5]
  EC50, binding affinity to human Seprase: nanomolar range
  binding to Seprase: binds strongly and selectively
